Reference: patent US20240025893A1, “PYRIMIDINE-AND NITROGEN-CONTAINING BICYCLIC COMPOUND” (Asahi Kasei Pharma Corporation, priority 2020, published 2024)

Tests used:
[1] = tested on: LPS-stimulated TNFα production in THP-1 cells; test: LPS-stimulated TNFα production inhibition test using human acute monocytic leukemia cell strain THP-1; format: cell-based; settings: LPS 2.5 ng/mL, average values
Procedure, shortened: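 THP-1 cells were preincubated with compound for 1 h at 37 °C, then stimulated with LPS (2.5 ng/mL final) for 4 h. Supernatant TNFα was quantified by HTRF (620/665 nm ratio) against a calibration curve. IC50 came from a 4-parameter logistic fit, with no-LPS set as 100% and no-compound as 0% suppression.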

[2] = tested on: collagen-induced arthritis in Lewis rats; test: Rat collagen-induced arthritis model (footpad volume); format: in vivo; settings: 19 days after first immunization
Description: Eight weeks old female Lewis rats (SLC Inc.) were immunized with bovine type II collagen (CII, Collagen Technical Study Session, product number K41) to induce arthritis. A 1:1 mixed emulsion of the incomplete Freund's adjuvant (Difco, Cat. 263910) and a 3 mg/mL solution of CII was prepared, and 0.7 mL of the emulsion was injected to each rat at seven sites in the tale base part and skins of both fore and hind legs in a volume of 0.1 mL per site. Booster immunization was performed after 7 days by injecting 0.2 mL of the same 1:1 mixed emulsion of the incomplete Freund's adjuvant and CII as that used in the first day at two sites in the tale base part in a volume of 0.1 mL per site. After 12 days, footpad volumes of the both hind feet of the animals were measured by using Plethysmometer (UGO BASILE, Cat. 37140), and the individual animals were divided into groups according to the footpad volume ratio based on that of the normal group and body weight. After they were divided into groups, administration of a test compound or a solvent (vehicle, 0.5% methylcellulose) was started, and it was orally administered twice a day for 7 days (provided that, on the day of grouping, the administration was performed only once after grouping). After the start of the administration, the footpad volumes of both hind feet of the animals were measured every other day or every 3 days by using Plethysmometer, and influence of the test compound was evaluated.
Average value of the footpad volumes was calculated for each individual on each measurement day by using Excel 2010 (Microsoft), and plotted as a graph by using GraphPadPrism 7.03 (GraphPad Software, Inc.). The normal group was defined to be a 100% suppression group, and the solvent administration group was defined to be a 0% suppression group. The suppression ratios based on these controls were calculated for each concentration of the test compound by using Excel 2010 (Microsoft).

human IRAK-4 = human IRAK-4 (Homo sapiens (Human), UniProt Q9NWZ3); test: Measurement of human IRAK-4 inhibitory activity (TR-FRET, peptide substrate phosphorylation, 10 μM ATP); format: biochemical; settings: 1 nM IRAK-4, 10 μM ATP, 23° C., 30 minutes; average values
Procedure, shortened: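 With 1 nM IRAK-4, 0.5 μM biotinylated peptide and 10 μM ATP, compound incubated 30 min at 23 °C in 50 mM HEPES pH 7.2 with Mg2+/Mn2+. Stopped with EDTA plus europium-cryptate anti-phosphopeptide antibody and streptavidin-XL665, 60 min at 23 °C. Activity taken as the 665/620 nm TR-FRET ratio.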

Sequence of human IRAK-4 (Q9NWZ3 whole entry): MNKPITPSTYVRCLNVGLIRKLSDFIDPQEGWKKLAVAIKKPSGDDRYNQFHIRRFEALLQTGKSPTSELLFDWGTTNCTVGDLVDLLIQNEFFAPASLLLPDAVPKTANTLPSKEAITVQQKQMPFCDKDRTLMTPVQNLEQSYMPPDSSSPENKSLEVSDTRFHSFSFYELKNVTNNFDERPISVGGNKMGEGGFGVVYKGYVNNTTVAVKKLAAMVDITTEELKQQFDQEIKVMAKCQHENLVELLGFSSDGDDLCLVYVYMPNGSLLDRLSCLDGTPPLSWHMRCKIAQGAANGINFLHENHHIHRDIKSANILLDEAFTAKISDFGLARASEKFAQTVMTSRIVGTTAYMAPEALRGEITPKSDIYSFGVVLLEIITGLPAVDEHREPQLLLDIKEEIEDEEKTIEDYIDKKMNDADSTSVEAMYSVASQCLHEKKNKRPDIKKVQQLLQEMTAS

IC50 ([1]; Homo sapiens, THP-1, 4 h) | IC50 (human IRAK-4) | IC50 ([1]; 4 hours) | Compound | suppression ratio (footpad volume) ([2]; 20 mg/kg orally twice a day) | suppression ratio (footpad volume) ([2]; 60 mg/kg orally twice a day) | suppression ratio (footpad volume) ([2]; 120 mg/kg orally twice a day)
143 nM | 3.92 nM | – | COc1c(-c2cnc(CO[C@H]3CCC[C@@H]3O)nc2)ccc2nc(NC(=O)C3CC3)sc12 [c-01-01, N-(6-(2-((((1S,2S)-2-Hydroxycyclopentyl)oxy)methyl)pyrimidin-5-yl)-7-methoxybenzo[d]thiazol-2-yl)cyclopropanecarboxamide] | 45% | 65% | 77%
200 nM | 1.84 nM | – | CCCOCc1ncc(-c2ccn3nc(NC(=O)[C@H]4C[C@@H](N5CCN(C(=O)c6cccc(C)n6)C[C@@H]5C)C4)cc3c2)cn1 [e-02-18] | – | – | –
191 nM | 1.19 nM | – | CCCOCc1ncc(-c2ccn3nc(NC(=O)[C@H]4C[C@@H](N5CCN(C(=O)C6CCOCC6)C[C@@H]5CC)C4)cc3c2)cn1 [e-02-19] | – | – | –
244 nM | 2.22 nM | – | CCCOCc1ncc(-c2ccn3nc(NC(=O)[C@H]4C[C@@H](N5CCN(C(=O)N(C)C)C[C@@H]5C)C4)cc3c2)cn1 [e-02-20] | – | – | –
188 nM | 1.73 nM | – | CCCOCc1ncc(-c2ccn3nc(NC(=O)[C@H]4C[C@@H](N5CCN(C(=O)c6coc(C)n6)C[C@@H]5C)C4)cc3c2)cn1 [e-02-21] | – | – | –
106 nM | 1.29 nM | – | CCCOCc1ncc(-c2ccn3nc(NC(=O)[C@H]4C[C@@H](N5CCN(C(=O)c6ccc(Cl)cn6)C[C@@H]5C)C4)cc3c2)cn1 [e-02-22] | – | – | –
111 nM | 0.88 nM | – | CCCOCc1ncc(-c2ccn3nc(NC(=O)[C@H]4C[C@@H](N5CCN(C(=O)c6cc(C)nc(C)c6)C[C@@H]5C)C4)cc3c2)cn1 [e-02-23] | – | – | –
117 nM | 1.27 nM | – | Cc1nc(C(=O)N2CCN([C@H]3C[C@@H](C(=O)Nc4cc5cc(-c6cnc(CO[C@H]7CCC[C@@H]7O)nc6)ccn5n4)C3)[C@@H](C)C2)co1 [e-02-24] | – | – | –
53 nM | 1.58 nM | – | C[C@H]1CN(C(=O)c2ccc(Cl)cn2)CCN1[C@H]1C[C@@H](C(=O)Nc2cc3cc(-c4cnc(CO[C@H]5CCC[C@@H]5O)nc4)ccn3n2)C1 [e-02-25] | – | – | –
80 nM | 1.86 nM | – | C[C@H]1CN(C(=O)c2ccon2)CCN1[C@H]1C[C@@H](C(=O)Nc2cc3cc(-c4cnc(CO[C@H]5CCC[C@@H]5O)nc4)ccn3n2)C1 [e-02-26] | – | – | –
54 nM | 1.38 nM | – | Cc1cc(C(=O)N2CCN([C@H]3C[C@@H](C(=O)Nc4cc5cc(-c6cnc(CO[C@H]7CCC[C@@H]7O)nc6)ccn5n4)C3)[C@@H](C)C2)cc(C)n1 [e-02-27] | – | – | –
431 nM | 3.74 nM | – | COc1c(-c2cnc(CO[C@H]3CCC[C@@H]3O)nc2)ccn2nc(NC(=O)C3CC3)cc12 [e-04-01, N-(5-(2-((((1S,2S)-2-Hydroxycyclopentyl)oxy)methyl)pyrimidin-5-yl)-4-methoxypyrazolo[1,5-a]pyridin-2-yl)cyclopropanecarboxamide] | – | – | –
– | 1.07 nM | 314 nM | COc1c(-c2cnc(CO[C@H]3CCC[C@H]3O)nc2)ccn2nc(NC(=O)C3CC3)cc12 [e-04-02] | – | – | –
